# Experimental data taken from patent publication US20250002450A1, “CATIONIC STEROID COMPOUNDS, METHOD OF OBTAINING THEREOF, FORMULATIONS COMPRISING THEREOF AND THEIR USES” (UNIVERSIDADE DO PORTO, priority 2021, published 2025).
# Key:
# [1] = tested on: E. coli ATCC 25922; test: Checkerboard synergy with erythromycin; type: cell-based, Escherichia coli; details: Escherichia coli
# Method: The combined effect of compound 1 and CTX for E. coli SA/2, VAN for E. faecalis B3/101, COL for E. coli 2252, erythromycin for E. coli ATCC 25922, and OXA for S. aureus 66/1 was evaluated by the checkerboard method. […] The interaction between compound 1 and erythromycin was assessed for E. coli ATCC 25922. Gram-negative bacteria are intrinsically resistant to erythromycin, a macrolide that inhibits protein synthesis, and cannot penetrate the outer membrane of Gram-negative bacteria, which is impermeable to hydrophobic antibiotics. Ascertain ceragenins have been previously described to be able to enhance the efficacy of such antibiotics, this possibility was investigated for compound 1 and a FICI of 0.6 was obtained.
# [2] = tested on: C. albicans ATCC 10231; test: Mitochondrial dehydrogenases activity, MTT reduction assay; type: cell-based, Candida albicans; details: 8 μg/mL, 2 h
# Method: In order to determine whether compound 1 could also affect mitochondrial function, MTT reduction assay was performed. In this assay, tetrazolium salts are reduced to purple formazan derivatives by mitochondrial dehydrogenases, which can be measured spectrophotometrically and reported to mitochondrial activity and, indirectly, to cell viability. In this assay, cells were exposed to the test compounds for 2 h ([FIG. 11]). […] An increase in reactive oxygen species (ROS) has been linked to azoles activity: even though their primary mode of action is the inhibition of ergosterol synthesis, they also induce accumulation of ROS, which enhances their antifungal activity and translates into an increase in mitochondrial activity at inhibitory concentrations. […] Mitochondrial dehydrogenase activity was evaluated by the MTT assay, as previously described, with some modifications. Cell suspensions of C. albicans ATCC 10231 were prepared in the same manner as described above and, after overnight incubation at 36° C., were centrifuged at 3500 rpm for 15 min, the supernatant was removed, and the cells were carefully resuspended in 2 mL of RPMI. Test conditions and controls were the same as described above, but the time of exposure to the test compounds was 2 h. After the exposure time, cell suspensions were centrifuged at 3500 rpm for 10 min, the supernatant was removed, and 500 μL of MTT solution (0.5 mg/mL in RPMI, at 35° C.) (Thiazolyl Blue Tetrazolium Bromide, Alfa Aesar, Ward Hill, MA, USA) were added. After a 1 h incubation at 35° C., the insoluble formazan product resulting from the conversion of MTT by mitochondrial dehydrogenases of metabolically active cells was solubilized with 300 μL of DMSO. 100 μL of each sample were transferred in duplicate to a microtiter plate and the extent of the reduction of MTT to formazan was quantified by measuring the absorbance at 570 nm. Three independent assays were performed in duplicate, and the results are expressed as percentage of MTT reduction, using the untreated cells as control.
# [3] = tested on: Escherichia coli ATCC 25922; test: Antibacterial MIC/MBC (broth microdilution); type: cell-based; details: Escherichia coli ATCC 25922
# Text: Twelve reference bacterial strains and nine MDR clinically relevant bacterial strains were used in this study. Gram-negative bacteria comprised reference strains E. coli ATCC 25922, K. pneumoniae ATCC 13883, Salmonella enterica serovar Typhimurium CECT 443, P. aeruginosa ATCC 27853, A. baumannii ATCC 19606, C. jejuni ATCC 33560 (ATCC—American Type Culture Collection; CECT—Colección Espanola de Cultivos Tipo); clinical isolates E. coli SA/2, an extended-spectrum β-lactamase (ESBL)-producing strain and P. aeruginosa 33b, a pan-drug-resistant isolate; and animal isolates C. jejuni P5/4, a ciprofloxacin-resistant strain, C. jejuni 4432, C. jejuni 4433, C. jejuni 4448, and E. coli 2252, a COL-resistant strain [42]. Gram-positive strains included S. aureus ATCC 29213, E. faecalis ATCC 29212, S. pyogenes ATCC 19615, and environmental isolates methicillin-resistant S. aureus (MRSA) 66/1 [43], and VAN-resistant enterococci (VRE) E. faecalis B3/101 [44]. Gram-negative fish pathogens Yersinia ruckeri ATCC 29473, Listonella anguillarum ATCC 1924, and Tenacibaculum maritimum ATCC 43397 were also included.
# Strains were kept in Trypto-Casein Soy agar (TSA—Biokar Diagnostics, Allone, Beauvais, France) slants and, before each assay, were sub-cultured in Mueller-Hinton agar (MHA—Biokar Diagnostics, Allone, Beauvais, France). Y. ruckeri ATCC 29473 and L. anguillarum ATCC 1924 were kept in Nutrient Agar (Condalab, Madrid, Spain) and T. maritimum ATCC 43397 was kept in TMM agar (Condalab, Madrid, Spain), and were sub-cultured in the respective culture media before each assay. For S. pyogenes ATCC 19615, CAMHB was supplemented with 3.75% lysed horse blood (LBH—Oxoid, Basingstoke, England), whereas for C. jejuni it was supplemented with 2.5% LHB. Colony-forming unit counts of the inoculum were conducted to determine the initial inoculum size (which should be approximately 5×10^5 CFU/mL). Sterility and growth controls were included in each assay. The 96-well U-shaped untreated polystyrene microtiter plates were incubated for 20 h at 37 degrees C. (42 degrees C. for C. jejuni, in a microaerophilic atmosphere) and the minimal inhibitory concentration (MIC) was determined as the lowest concentration of compound that prevented visible growth. The minimal bactericidal concentration (MBC) was determined by spreading 100 μL of the content of the wells with no visible growth on MH plates. The MBC was determined as the lowest concentration of compound that killed 99.9% of the initial inoculum after overnight incubation at 37 degrees C. Two independent assays were performed for reference and MDR strains.
# An initial screening of the antibacterial activity of the compounds was performed by the Kirby-Bauer disk diffusion method, as recommended by the Clinical and Laboratory Standards Institute (CLSI). Briefly, sterile 6 mm blank paper disks (Oxoid, Basingstoke, England) impregnated with 15 μg of each compound were placed on inoculated MH agar plates. A blank disk with dimethylsulfoxide (DMSO) was used as a negative control. MH inoculated plates were incubated for 18-20 h at 37 degrees C. At the end of incubation, the inhibition halos where measured. The MIC was used to determine the antibacterial activity of each compound, in accordance with the recommendations of the CLSI. Two-fold serial dilutions of the compounds were prepared in Mueller-Hinton Broth 2 (MHB2—Sigma-Aldrich, St. Louis, MO, USA) within the concentration range of 0.062-64 μg/mL. CTX ranging between 0.031-16 μg/mL was used as a control. Sterility and growth controls were included in each assay. Purity checks and colony counts of the inoculum suspensions were also performed in order to ensure that the final inoculum density closely approximates the intended number (5×10^5 CFU/mL). The MIC was determined as the lowest concentration of compound that inhibited growth of the bacteria. The MBC was assessed by spreading 10 μL of culture collected from wells showing no visible growth on MH agar plates. […]
# [4] = tested on: E. coli ATCC 25922; test: Membrane integrity, propidium iodide influx assay (SYTO 9/PI); type: cell-based, Escherichia coli; details: 0, 1, 18 h
# Method: The influx of PI in E. coli ATCC 25922 treated with 2×MIC, MIC, and ½×MIC of compound 1 was evaluated using a commercial kit that includes fluorescent nucleic acid stains SYTO® 9 and PI. SYTO® 9 can enter cells with intact or damaged membranes, generally labeling both, whereas PI only penetrates cells with severe membrane lesions, causing a reduction in SYTO® 9 fluorescence when both dyes are present.
# In these assays, COL and AMP were used as controls. COL is a polycationic antimicrobial peptide with a complex mode of action, that ultimately solubilizes the bacterial cell membrane. AMP is an aminopenicillin that inhibits cell wall synthesis by inhibiting penicillin-binding proteins. E. coli ATCC 25922 cells were treated with compound 1 and, at several time-points (0, 1, and 18 h), samples were taken, and SYTO® 9/PI ratio was determined ([FIG. 4]). The entrance of PI is reflected in a reduction of this ratio.
# Briefly, E. coli ATCC 25922 colonies from overnight cultures in MHA were suspended in CAMHB to prepare an inoculum with a final concentration of approximately 5×10^5 CFU/mL. The tubes were incubated overnight at 36° C. in a water bath with shaking. Following this, the cell suspensions were centrifuged at 3500 rpm for 15 min, the supernatant was removed, the cells were carefully resuspended in fresh CAMHB and the suspension was adjusted to 0.5 McFarland. An aliquot of this suspension was then added to each tube of CAMHB alone (control) or CAMHB plus an appropriate amount of test compound. […] The tubes were incubated at 36 degrees C. in a water bath with shaking and, at pre-established time points (0, 1, and 18 h), […] aliquots were retrieved for further analysis. After the exposure time, cells were washed two times, resuspended in 0.85% NaCl, and 100 μL of each cell suspension was distributed in the wells of a microtiter plate, in triplicate. 100 μL of a mixture of 30 μM PI and 5 μM SYTO® 9 prepared in ultrapure water were added to each well, and the plates were incubated at room temperature, in the dark, for 15 min. The fluorescence intensity of the stained bacterial suspensions was determined using a microplate reader (Synergy HT, BioTek Instruments, Winooski, VT, USA) by two consecutive measurements with excitation wavelength 485 nm and emission wavelength 528 nm (SYTO® 9) or 590 nm (PI). Data were analyzed by subtracting background fluorescence from each sample, dividing the fluorescence intensity of SYTO® 9 by fluorescence intensity of PI, and the results are presented as a percentage of control. Three independent assays were performed in triplicate for each experimental condition.
# [5] = tested on: E. coli ATCC 25922; test: Enzymatic/metabolic activity, MTT assay; type: cell-based, Escherichia coli; details: 0, 1, 18 h
# Method: To determine whether compound 1 could also affect enzymatic activity, 2-(4,5-dimethyl-2-thiazolyl)-3,5-diphenyl-2H-tetrazolium bromide (MTT) assay was performed. This assay can also be used as an indirect measure of cellular viability, as tetrazolium salts are reduced to purple formazan by metabolically active cells. E. coli ATCC 25922 cells were treated with compound 1 and COL and AMP were used as controls, as described above. Measurements were made at 0, 1, and 18 h.
# Enzymatic activity was evaluated by the MTT assay, as previously described, with some modifications. Cell suspensions of E. coli ATCC 25922 were prepared as described above, as well as test conditions and controls. At each time point (0, 1, and 18 h), 500 μL aliquots were collected, centrifuged at 3500 rpm for 10 min, the supernatant was removed, and 300 μL of MTT solution (0.5 mg/mL in CAMHB, at 36 degrees C.) (Thiazolyl Blue Tetrazolium Bromide, Alfa Aesar, Ward Hill, MA, USA) were added. After a 30 min incubation at 36° C., the insoluble formazan product resulting from the conversion of MTT by metabolically active cells was solubilized with 300 μL of DMSO. 100 μL of each sample were transferred in duplicate to the wells of a microtiter plate and the extent of the reduction of MTT to formazan was quantified by measuring the absorbance at 570 nm (Thermo Scientific Multiskan® EX, Thermo Fisher Scientific, Waltham, MA, USA). Three independent assays were performed in duplicate, and results are expressed as a percentage of untreated control.
compound,measurement,setting,value
"CC[C@H]1OC(=O)[C@H](C)[C@@H](O[C@H]2C[C@@](C)(OC)[C@@H](O)[C@H](C)O2)[C@H](C)[C@@H](O[C@@H]2O[C@H](C)C[C@H](N(C)C)[C@H]2O)[C@](C)(O)C[C@@H](C)C(=O)[C@H](C)[C@@H](O)[C@]1(C)O [erythromycin, reference compound]",MIC,"[1]; ATCC25922, E. coli ATCC 25922, erythromycin alone",16 mg/L
same,MIC,"[1]; ATCC25922, E. coli ATCC 25922, with 16 μg/mL of compound 1 (½×MIC)",0.125 mg/L
"C[C@@H](c1ncncc1F)[C@](O)(Cn1cncn1)c1ccc(F)cc1F [VRC, voriconazole]",mitochondrial activity (MTT reduction) vs untreated control,[2],identical effect
colistin,MIC,[3],1 mg/L
same,reduction in SYTO 9/PI ratio vs untreated control,[4]; 1 μg/mL,only a significant reduction at 1 h
same,reduction in SYTO 9/PI ratio vs untreated control,[4]; 8 μg/mL,statistically significant
same,metabolic activity (MTT) vs untreated control,[5]; 1 μg/mL,only a significant reduction at 1 h
same,metabolic activity (MTT) vs untreated control,[5]; 8 μg/mL,significant reduction of metabolic activity at all time points
